Read-outs that look alike come from different tables or passages of the source.

Consider ten molecules from paper PMC10341893, “Motifs in Natural Products as Useful Scaffolds to Obtain Novel Benzo[d]imidazole-Based Cannabinoid Type 2 (CB2) Receptor Agonists” (International Journal of Molecular Sciences, 2023).

Test [1] deals with T1, hCB2 receptor (Homo sapiens, UniProt P34972). Description: cAMP accumulation assay (forskolin-stimulated, CHO cells expressing hCB2). As to conditions: for agonist activity at CB2 (cAMP accumulation): recombinant cells expressing CB2 receptors. Type of test: cell-based. The method, then:
Compounds were further characterized through in vitro functional assays by measuring the variation in forskolin-induced cAMP accumulation (Eurofins Cerep services). The tested compounds diminished the accumulation of cyclic AMP, indicating activity as agonists (Figure 3).
In vitro pharmacology assay for human CB2 agonist effect in CHO cells was performed by Eurofins Cerep (Celle-Lévescault, France). Five compounds were tested at several concentrations for EC50 determination. […] CHO cells stably expressing hCB2 receptor were used to determine agonist effect of compounds, based on the measurement of cAMP level. Assay protocol is adapted from Felder et al..

For test [2], the target named is T1, hCB2 receptor. The experiment in a line: CB2 receptor binding assay ([3H]-CP-55,940 displacement, HEK cell membranes). The arrangement: expressed in transfected cells; host or cells: HEK cells. The note with it: for Ki (CB1)/Ki (CB2): selectivity ratio CB2 over CB1. The procedure: (§1) To assess the compound selectivity between CB1 and CB2 receptors, binding constants were determined through a radioligand displacement assay by testing concentration–response curves for compounds 5, 6, 16, 19, and 22. As shown in Figure 4 and summarized in Table 4, three of the tested compounds (5, 19, and 22) presented moderate binding affinity in a low micromolar range to both CB1 and CB2 receptors.
(§2) CB1 and CB2 receptor binding assays were performed exactly as previously described. […] Displacement curves were performed by incubating [^3H]-CP-55 940 (90 min, 30 °C) with increasing concentrations of compounds (10 nM−10 μM). Ki values were calculated by applying the Cheng−Prusoff equation to the IC50 values (obtained by GraphPad, Prism Software 9.5) for the displacement of the bound radioligand by compounds.

Test [3] addresses T1, hCB2 receptor. The experiment in a line: Single-dose radioligand displacement assay ([3H]WIN55212-2). Type of test: binding. Further details: host or cells: CHO cells. As to conditions: membranes from recombinant CHO cells expressing human CB2, duplicate; for Inhibition (%) of [3H]WIN55212-2 specific binding: 10 µM single dose; for inhibition at 10 µM: read-out: Inhibition (%) of [3H]WIN55212-2 specific binding, 10 µM single dose. The method, then:
To assess ligand binding to CB2 receptors, radioligand displacement assay at a single dose (10 μM) was performed in membranes obtained from recombinant CHO cells expressing human CB2 receptors (Eurofins Cerep SA, France). Out of 26 compounds, more than 50% of the molecules presented >50% displacement, while 20% of the compounds (5, 6, 16, 19, 22) presented >80% displacement of radioligand binding at a 10 μM dose. Compounds 5, 6, 16, 19, and 22 were further tested for CB2 receptor activation (agonist activity, see below) and CB2/CB1 selectivity.
All membrane preparations for these studies were generated at Cerep Inc. according to standard protocols. Duplicate determinations were performed for each test compound. Compounds were dissolved in DMSO to generate a stock solution. Radioligand binding methods were adapted from Munro et al..

In test [4] the target is T2, human recombinant CB1R (Homo sapiens, UniProt P21554).
T2 construct: expressed in transfected cells; host or cells: HEK cells
Description: CB1 receptor binding assay ([3H]-CP-55,940 displacement, HEK cell membranes). The method, then:
as §1, §2

Test [5] relates to MCF-7 cells. Description: Neutral red uptake assay, MCF-7. Type of test: cell-based. The note with it: Homo sapiens, MCF7, 72 h incubation, triplicate, read-out: IC50 Viability. The procedure:
(§3) Compound 6 was tested through a neutral red uptake assay, and cell viability was measured. Neutral red consists of a cationic dye that accumulates in lysosomes. Uptake of neutral red depends on a viable cell’s capacity to maintain acidic pH in the interior of lysosomes.
(§4) MCF-7 and HEK-293 cell lines were maintained at 37 °C in a humidified atmosphere containing 5% CO2. MCF-7 was grown in Roswell Park Memorial Institute (RPMI) 1640 and HEK-293 was grown in Dulbecco’s modified Eagle medium and Ham’s F-12 medium (DMEM/F12). All media was supplemented with 10% fetal bovine serum, penicillin (100 U/mL), streptomycin ([…]), and non-essential amino acids MEM 1×.
(§5) Cells were seeded in 100 μL of media at a density of 10^4 cells/well in 96-well microtiter plates. Solutions of compounds were previously prepared in DMSO, and 1 μL of the corresponding solution was added to each well. The final volume of each well was adjusted to 200 μL. After 72 h of incubation, culture media were removed, and 100 μL of 10 μg/mL neutral red solution prepared in culture media was added to each well and incubated for 2 h at 37 °C in a humidified atmosphere containing 5% CO2. […] The plate was placed for 15 min in a shaker, and fluorescence was measured using Cytation 5 apparatus (Biotek, Winooski, VT, USA) at 530/645 nm excitation/emission wavelengths.

Test [6] deals with HEK-293 cells. Description: Neutral red uptake assay, HEK-293. In kind it is cell-based. The note with it: Homo sapiens, HEK293. The procedure:
as §3, §4, §5

[7] abbreviates: [3H]-CP-55,940 displacement, means ± SD of 3 independent experiments in duplicate, read-out: Ki CB2.
Where [8] appears, read: [3H]-CP-55,940 displacement, means ± SD of 3 independent experiments in duplicate, read-out: Ki CB1.

T1 sequence (P34972 whole entry): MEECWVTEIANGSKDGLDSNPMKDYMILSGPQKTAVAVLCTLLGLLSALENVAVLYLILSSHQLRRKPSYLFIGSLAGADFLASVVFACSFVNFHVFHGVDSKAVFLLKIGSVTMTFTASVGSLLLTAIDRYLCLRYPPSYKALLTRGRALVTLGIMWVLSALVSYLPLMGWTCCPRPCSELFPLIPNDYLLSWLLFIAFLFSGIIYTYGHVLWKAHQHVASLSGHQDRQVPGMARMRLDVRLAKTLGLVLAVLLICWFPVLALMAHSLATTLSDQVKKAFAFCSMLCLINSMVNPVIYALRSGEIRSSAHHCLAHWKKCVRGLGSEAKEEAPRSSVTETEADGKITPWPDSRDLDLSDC
T2 sequence (P21554 whole entry): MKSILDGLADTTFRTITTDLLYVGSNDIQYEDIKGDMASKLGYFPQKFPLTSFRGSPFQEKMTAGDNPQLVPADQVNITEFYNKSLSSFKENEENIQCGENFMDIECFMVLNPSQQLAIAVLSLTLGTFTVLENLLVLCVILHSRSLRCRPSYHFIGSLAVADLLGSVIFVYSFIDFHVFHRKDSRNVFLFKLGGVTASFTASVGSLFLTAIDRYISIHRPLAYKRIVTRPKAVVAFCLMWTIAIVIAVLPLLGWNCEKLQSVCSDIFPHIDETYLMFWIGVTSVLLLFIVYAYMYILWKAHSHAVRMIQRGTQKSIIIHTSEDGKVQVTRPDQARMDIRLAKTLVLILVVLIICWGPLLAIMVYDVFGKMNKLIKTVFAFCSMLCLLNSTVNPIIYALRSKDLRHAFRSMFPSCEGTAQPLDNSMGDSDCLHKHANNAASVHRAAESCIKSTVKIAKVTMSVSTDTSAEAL

In the case of `CC1CCC(C(C)C)C(Oc2nc3ccccc3n2Cc2ccccc2)C1` (stereo not drawn) [Compound 5, 1-benzyl-2-((2-isopropyl-5-methylcyclohexyl)oxy)-1H-benzo[d]imidazole], in test [1], the midpoint of the response, the EC50, lay at 0.014 µM and the “agonist activity at CB2 (cAMP accumulation)” value (“agonist activity at CB2” below) was “agonist activity was confirmed”. Besides, in test [2], affinity was put at a Ki of 0.4 ± 0.08 µM and the “Ki (CB1)/Ki (CB2)” value came out at 2.3. Moreover, in test [3], the “Inhibition (%) of [3H]WIN55212-2 specific binding” value (“Inhibition (%)” for short) is listed as 90% and the inhibition at 10 µM was > 80%. The Ki in test [4] was determined as 0.92 ± 1.15 µM.

On to `CCn1c(OC2CC(C)CCC2C(C)C)nc2ccccc21` (stereo not drawn) [Compound 6, 1-ethyl-2-((2-isopropyl-5-methylcyclohexyl)oxy)-1H-benzo[d]imidazole], for which the concentration for half-maximal inhibition (IC50) in test [5] is 38 µM; in test [6] (HEK-293, 72 h incubation, triplicate, read-out: IC50 Viability), 30 µM; in test [6] (range over HEK-293 and MCF-7 cells, read-out: IC50 of toxicity), 30 to 38 µM. In test [1] (recombinant CHO cells expressing hCB2, duplicate, read-out: EC50, inhibition of forskolin-stimulated cAMP accumulation), the EC50 was found to be 0.00336 µM. Besides, the “agonist activity at CB2” value in test [1] is “agonist activity was confirmed”. The inhibition constant (Ki) in test [2] (setting [7]) was 0.44 ± 0.1 µM; in test [4] (setting [8]), > 10 µM. In addition, the “Inhibition (%)” value in test [3] turned out to be 89%. In test [3], the inhibition at 10 µM is > 80%.

Take `c1ccc(Cn2c(OC34CC5CC(CC(C5)C3)C4)nc3ccccc32)cc1` [Compound 16, 2-(adamantan-1-yloxy)-1-benzyl-1H-benzo[d]imidazole]: in test [1], it took 0.02 µM to reach a half-maximal effect (EC50) and the “agonist activity at CB2” value is reported as “agonist activity was confirmed”. Moreover, in test [2], affinity was put at a Ki of 0.63 ± 0.19 µM. For the same molecule, in test [3], the “Inhibition (%)” value is recorded as 86% and the inhibition at 10 µM was > 80%. Moreover, the Ki in test [4] was > 10 µM.

Consider `COc1ccc(CSc2nc3ccccc3n2Cc2ccccc2)cc1` [Compound 19, 1-benzyl-2-((4-methoxybenzyl)thio)-1H-benzo[d]imidazole], for which, in test [1], the “agonist activity at CB2” value is “agonist activity was confirmed”. The Ki in test [2] (setting [7]) was 0.93 ± 0.29 µM. For the same molecule, the “Ki (CB1)/Ki (CB2)” value in test [2] was 1.3. Moreover, in test [3], the “Inhibition (%)” value is given as 88% and the inhibition at 10 µM was > 80%. In addition, the Ki in test [4] (setting [8]) was determined as 1.23 ± 0.88 µM.

For the molecule `COc1cccc(Oc2nc3ccccc3n2Cc2cccc3ccccc23)c1` [Compound 21, 2-(3-methoxyphenoxy)-1-(naphthalen-1-ylmethyl)-1H-benzo[d]imidazole], the “Inhibition (%)” value in test [3] is 62%.

As for `COc1cccc(Oc2nc3ccccc3n2Cc2ccccc2)c1` [Compound 22, 1-benzyl-2-(3-methoxyphenoxy)-1H-benzo[d]imidazole], in test [1], the “agonist activity at CB2” value is “agonist activity was confirmed”. Moreover, the Ki in test [2] (setting [7]) came out at 0.6 ± 0.52 µM. The “Ki (CB1)/Ki (CB2)” value in test [2] was found to be 3.4. Moreover, in test [3], the “Inhibition (%)” value was 84% and the inhibition at 10 µM is > 80%. In addition, the inhibition constant (Ki) in test [4] (setting [8]) stood at 2.04 ± 1.22 µM.

Consider `CCn1c(Oc2cccc(OC)c2)nc2ccccc21` [Compound 23, 1-ethyl-2-(3-methoxyphenoxy)-1H-benzo[d]imidazole], for which the inhibition at 10 µM in test [3] amounted to 54%.

For the molecule `CCCCCCC(C)(C)c1cc(OC)cc(Oc2nc3ccccc3n2Cc2cccc3ccccc23)c1` [Compound 24, 2-(3-methoxy-5-(2-methyloctan-2-yl)phenoxy)-1-(naphthalen-1-ylmethyl)-1H-benzo[d]imidazole], in test [3], the inhibition at 10 µM turned out to be 32%.

Turning to `CCCCCCC(C)(C)c1cc(OC)cc(Oc2nc3ccccc3n2Cc2ccccc2)c1` [Compound 25, 1-benzyl-2-(3-methoxy-5-(2-methyloctan-2-yl)phenoxy)-1H-benzo[d]imidazole], the inhibition at 10 µM in test [3] amounted to 33%.

In the case of `CCCCCCC(C)(C)c1cc(OC)cc(Oc2nc3ccccc3n2CC)c1` [Compound 26, 1-ethyl-2-(3-methoxy-5-(2-methyloctan-2-yl)phenoxy)-1H-benzo[d]imidazole], in test [3], the inhibition at 10 µM was determined as 49%.
